Target: T1, Axl (Homo sapiens, UniProt P30530)
T1 construct: endogenous in cells; host or cells: HeLa cells
T1 sequence (P30530 26-894): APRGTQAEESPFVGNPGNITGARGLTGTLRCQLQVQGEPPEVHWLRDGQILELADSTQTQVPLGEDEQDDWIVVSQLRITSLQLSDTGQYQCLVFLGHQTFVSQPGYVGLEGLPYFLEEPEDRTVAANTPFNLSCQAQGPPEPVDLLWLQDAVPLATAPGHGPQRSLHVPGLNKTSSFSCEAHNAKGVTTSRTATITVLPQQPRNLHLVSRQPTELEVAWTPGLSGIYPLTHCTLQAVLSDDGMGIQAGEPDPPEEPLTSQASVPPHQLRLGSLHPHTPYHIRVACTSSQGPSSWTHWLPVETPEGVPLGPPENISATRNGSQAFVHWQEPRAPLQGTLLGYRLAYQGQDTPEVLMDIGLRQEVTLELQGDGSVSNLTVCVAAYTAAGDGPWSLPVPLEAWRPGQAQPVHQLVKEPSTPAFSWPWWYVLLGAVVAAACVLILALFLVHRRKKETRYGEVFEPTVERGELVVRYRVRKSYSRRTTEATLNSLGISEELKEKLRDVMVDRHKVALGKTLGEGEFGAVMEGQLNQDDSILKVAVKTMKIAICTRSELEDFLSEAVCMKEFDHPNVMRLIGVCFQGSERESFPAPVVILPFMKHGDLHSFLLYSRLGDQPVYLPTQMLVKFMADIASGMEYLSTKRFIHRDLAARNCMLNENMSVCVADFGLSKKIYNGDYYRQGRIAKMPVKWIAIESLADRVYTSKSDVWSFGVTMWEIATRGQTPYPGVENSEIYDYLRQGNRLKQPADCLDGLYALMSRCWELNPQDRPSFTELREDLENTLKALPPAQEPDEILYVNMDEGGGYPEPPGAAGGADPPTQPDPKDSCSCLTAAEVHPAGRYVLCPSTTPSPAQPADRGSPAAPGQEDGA
Assay: Phospho-Akt in-cell Western assay (inhibition of Axl activity, Axl-antibody cross-linking stimulation)
Format: cell-based
Details: Hela cells, phospho-Akt readout; compounds of formula (Ia), Table 1
Method: The compounds of the invention were tested in the following assay for their ability to inhibit Axl activity.
Phospho-Akt in-Cell Western Assay
• Cell culture plate: 96 well assay plate (Corning 3610), white, clear bottom, tissue-culture treated. • Cells: Hela cells. • Starvation medium: For Axl stimulation: 0.5% FCS (fetal calf serum) in DMEM, plus Axl/Fc (extracellular domain of AXL fused to immunoglobulin Fc region) (R&D, 154-AL) 500 ng/mL. • For EGF (epidermal growth factor) stimulation: 0.5% FCS in DMEM (Dulbecco's modified Eagles medium). • Poly-L-Lysine 0.01% solution (the working solution): 10 μg/ml, dilute In PBS (phosphate buffered saline). • Axl antibody cross-linking: • 1st: Mouse anti-Axl (R&D, MAB154). • 2nd: Biotin-SP-conjugated AffiniPure goat anti-mouse IgG (H+L) (Jackson ImmunoResearch #115-065-003). • Fixing buffer: 4% formaldehyde in PBS. • Wash buffer: 0.1% TritonX-100 in PBS. • Quenching buffer: 3% H2O2, 0.1% Azide in wash buffer, Azide and hydrogen peroxide (H2O2) are added fresh. • Blocking buffer: 5% BSA in TBST (tris buffered saline plus 0.1% Tween 20). • Primary antibody: Rabbit anti-human Phospho-Akt antibody (Cell Signaling 9271): 1×250 diluted in blocking buffer. • Secondary antibody: HRP (horse radish peroxidase)-conjugated Goat anti-Rabbit secondary, stock solution: Jackson ImmunoResearch (Goat anti-Rabbit HRP, #111-035-144) 1:1 diluted in glycerol, store at −20° C. The working solution: 1×2000 dilution of stock in blocking buffer. • Chemiluminescent working solution (Pierce, 37030): SuperSignal ELISA (enzyme linked immunosorbant assay) Pico Chemiluminescent substrate. • Crystal Violet solution: Stock: 2.5% Crystal violet in methanol, filtered and kept at ambient temperature. The working solution: dilute the stock 1:20 with PBS immediately before use.
10% SDS: working solution: 5% SDS (sodium dodecylsulfate), diluted in PBS
A 96 well TC (tissue culture treated) plate was coated with 10 μg/mL poly-L-Lysine at 37° C. for 30 min, washed twice with PBS, and air-dried for 5 minutes before cells were added. Hela cells were seeded at 10,000 cells/well and the cells were starved in 100 μL starvation medium containing Axl/Fc for 24 hrs.
The cells were pre-treated with test compounds by adding 100 μL of 2× test compound to the starvation medium on the cells. The cells were incubated at 37° C. for 1 hr before stimulation.
The cells were stimulated by Axl-antibody cross-linking as follows: A 5×1st/2nd Axl antibody mixture was made (37.5 μg/mL 1st/100 μg/mL 2 nd) in starvation medium and nutated at 4° C. with thorough mixing for 1-2 hours for clustering. The resulting mix was warmed to 37° C. 50 μL of 5×Axl 1st/2nd of antibody cluster was added to the cells and the cells were incubated at 37° C. for 5 min.
After 5 minutes stimulation, the plate was flicked to remove medium and the plate was tapped onto paper towels. Formaldehyde (4.0% in PBS, 100 μL) was added to fix the cells and the cells were incubated at ambient temperature for 20 min without shaking.
The cells were washed with a plate washer buffer to remove the formaldehyde solution. The plate was flicked to removed excess wash buffer and tapped onto paper towels. Quenching buffer (100 μL) was added to each well and the cells were incubated at ambient temperature for 20 minutes without shaking.
The cells were washed with a plate washer buffer to remove the quenching buffer. Blocking buffer (100 μL) was added and the cells were incubated at ambient temperature for at least an hour with gentle shaking.
The cells were washed with a plate washer buffer and diluted primary antibody (50 μL) was added to each well (blocking buffer was added to the negative control wells instead). The plates were incubated overnight at 4° C. with gentle shaking.
The wash buffer was removed, diluted secondary antibody (100 μL) was added, and the cells were incubated at ambient temperature for 1 hour with gentle shaking. […]

`Nc1nc(Nc2ccc3oc(CN4CCCC4)nc3c2)nn1-c1nccc2ccccc12` [compound 1, 1-(isoquinolin-1-yl)-N^3-(2-(pyrrolidin-1-ylmethyl)benzo [d]oxazol-5-yl)-1H-1,2,4-triazole-3,5-diamine] and `Nc1nc(Nc2ccc3oc(CN4CCCC4)nc3c2)nn1-c1ncnc2ccc(Cl)cc12` [compound 2, 1-(6-chloro-quinazolin-4-yl)-N^3-(2-(pyrrolidin-1-ylmethyl)benzo [d]oxazol-5-yl)-1H-1,2,4-triazole-3,5-diamine] fall in the same range of IC50: 1000 to 10000 nM for the first, 1000 to 10000 nM for the second.

First: Nc1nc(Nc2ccc3c(c2)OCCO3)nn1-c1ccccc1 [compound 3, N^3-(2,3-dihydrobenzo [b][1,4]dioxin-6-yl)-1-phenyl-1H-1,2,4-triazole-3,5-diamine]
Second: Nc1nc(Nc2ccc3c(c2)OCCO3)nn1-c1nccc2ccccc12 [compound 4, N^3-(2,3-dihydrobenzo [b][1,4]dioxin-6-yl)-1-(isoquinolin-1-yl)-1H-1,2,4-triazole-3,5-diamine]
The IC50 of the first is higher: > 20000 nM for the first, 1000 to 10000 nM for the second. The second is the more potent here.

Compared with `COc1cc2ncnc(-n3nc(Nc4ccc5c(c4)OCCO5)nc3N)c2cc1OC` [compound 5, N^3-(2,3-dihydrobenzo [b][1,4]dioxin-6-yl)-1-(6,7-dimethoxy-quinazolin-4-yl)-1H-1,2,4-triazole-3,5-diamine], `COc1cc2ncnc(-n3nc(Nc4ccc5c(c4)NC(=O)CCC5)nc3N)c2cc1OC` [compound 9, 1-(6,7-dimethoxy-quinazoline-4-yl)-N^3-(4,5-dihydro-1H-benzo[b]azepin-2(3H)-on-8-yl)-1H-1,2,4-triazole-3,5-diamine] is higher in IC50: < 1000 nM for the first, 1000 to 10000 nM for the second.

`COc1cc2ncnc(-n3nc(Nc4ccc(N5CCN(C6CC7CCC6C7)CC5)nc4)nc3N)c2cc1OC` (centres unmarked) [compound 6, 1-(6,7-dimethoxy-quinazoline-4-yl)-N^3-(6-(4-(bicyclo[2.2.1]heptan-2-yl)piperazin-1-yl)pyridin-3-yl)-1H-1,2,4-triazole-3,5-diamine] and `COc1cc2ncnc(-n3nc(Nc4ccc(N5CCCN(C6CCCC6)CC5)nc4)nc3N)c2cc1OC` [compound 11, 1-(6,7-dimethoxy-quinazoline-4-yl)-N^3-(6-(4-cyclopentyl-1,4-diazepan-1-yl)pyridin-3-yl)-1H-1,2,4-triazole-3,5-diamine] cannot be ordered by IC50: < 1000 nM for the first, < 1000 nM for the second.

`Nc1nc(Nc2ccc(N3CCN(C4CC5CCC4C5)CC3)nc2)nn1-c1nccc2ccccc12` (centres unmarked) [compound 7, 1-(isoquinolin-1-yl)-N^3-(6-(4-(bicyclo[2.2.1]heptan-2-yl)piperazin-1-yl)pyridin-3-yl)-1H-1,2,4-triazole-3,5-diamine] and `CN1CCc2ncc(Nc3nc(N)n(-c4nccc5ccccc45)n3)cc2C1` [compound 16, 1-(isoquinolin-1-yl)-N^3-(6-methyl-5,6,7,8-tetrahydro-1,6-naphthyridin-3-yl)-1H-1,2,4-triazole-3,5-diamine] cannot be ordered by IC50: < 1000 nM for the first, < 1000 nM for the second.

`COc1cc2ncnc(-n3nc(Nc4ccc(N5CCC(N6CCN(C)CC6)CC5)nc4)nc3N)c2cc1OC` [compound 8, 1-(6,7-dimethoxy-quinazoline-4-yl)-N^3-(6-(4-(4-methyl-piperazin-1-yl)piperidin-1-yl)pyridin-3-yl)-1H-1,2,4-triazole-3,5-diamine] and `COc1cc2ncnc(-n3nc(Nc4cnc5c(c4)CCN(C4CCCC4)CC5)nc3N)c2cc1OC` [compound 13, 1-(6,7-dimethoxy-quinazoline-4-yl)-N^3-(7-cyclopentyl-6,7,8,9-tetrahydro-5H-pyrido[3,2-d]azepin-3-yl)-1H-1,2,4-triazole-3,5-diamine] cannot be ordered by IC50: < 1000 nM for the first, < 1000 nM for the second.

`Cc1csc2c(-n3nc(Nc4ccc(N5CCCN(C6CCCC6)CC5)nc4)nc3N)nc(Cl)nc12` [compound 10, 1-(2-chloro-7-methylthieno [3,2-d]pyrimidine-4-yl)-N^3-(6-(4-cyclopentyl-1,4-diazepan-1-yl)pyridin-3-yl)-1H-1,2,4-triazole-3,5-diamine] and `Cc1csc2c(-n3nc(Nc4ccc(N5CCC(N6CCCC6)CC5)nc4)nc3N)nc(Cl)nc12` [compound 17, 1-(2-chloro-7-methyithieno [3,2-d]pyrimidine-4-yl)-N^3-(6-(4-(pyrrolidin-1-yl)piperidin-1-yl)pyridine-3-yl)-1H-1,2,4-triazole-3,5-diamine] cannot be ordered by IC50: < 1000 nM for the first, < 1000 nM for the second.

Compared with `Cc1csc2c(-n3nc(Nc4cnc5c(c4)CCN(C4CCCC4)CC5)nc3N)nc(Cl)nc12` [compound 12, 1-(2-chloro-7-methylthieno [3,2-d]pyrimidine-4-yl)-N^3-(7-cyclopentyl-6,7,8,9-tetrahydro-5H-pyrido [3,2-d]azepin-3-yl)-1H-1,2,4-triazole-3,5-diamine], `Cc1csc2c(-n3nc(Nc4cnc5c(c4)CC(C(=O)N4CCCC4)CC5)nc3N)nc(Cl)nc12` (centres unmarked) [compound 20, 1-(2-chloro-7-methylthieno [3,2-d]pyrimidine-4-yl)-N^3-(6-(pyrrolidin-1ylcarbonyl)-5,6,7,8-tetrahydro-quinolin-3-yl)-1H-1,2,4-triazole-3,5-diamine] is lower in IC50: 1000 to 10000 nM for the first, < 1000 nM for the second.

`Cc1csc2c(-n3nc(Nc4cnc5c(c4)CN(C)CC5)nc3N)nc(Cl)nc12` [compound 14, 1-(2-chloro-7-methylthieno [3,2-d]pyrimidine-4-yl)-N^3-(6-methyl-5,6,7,8-tetrahydro-1,6-naphthyridin-3-yl)-1H-1,2,4-triazole-3,5-diamine] and `CCOC(=O)N1CCc2ncc(Nc3nc(N)n(-c4nc(Cl)nc5c(C)csc45)n3)cc2C1` [compound 19, 1-(2-chloro-7-methylthieno [3,2-d]pyrimidine-4-yl)-N^3-(6-(ethylcarboxy)-5,6,7,8-tetrahydro-1,6-naphthyridin-3-yl)-1H-1,2,4-triazole-3,5-diamine] cannot be ordered by IC50: > 20000 nM for the first, > 20000 nM for the second.

First: Cc1csc2c(-n3nc(Nc4ccc(N5CCN(C)CC5)nc4)nc3N)nc(Cl)nc12 [compound 15, 1-(2-chloro-7-methylthieno [3,2-d]pyrimidine-4-yl)-N^3-(6-(4-methyl-piperazin-1-yl)pyridin-3-yl)-1H-1,2,4-triazole-3,5-diamine]
Second: Cc1csc2c(-n3nc(Nc4cnc5c(c4)CN(Cc4ccccc4)CC5)nc3N)nc(Cl)nc12 [compound 18, 1-(2-chloro-7-methylthieno [3,2-d]pyrimidine-4-yl)-N^3-(6-benzyl-5,6,7,8-tetrahydro-1,6-naphthyridin-3-yl)-1H-1,2,4-triazole-3,5-diamine]
The IC50 of the first is lower: < 1000 nM for the first, 10000 to 20000 nM for the second. The first is the more potent here.
